In patent publication US8940915B2, “Solvent for recovery of maleic anhydride from a gas stream” (Huntsman Petrochemical LLC, priority 2011, dated 2015):
Values after ≈ are worked out from the molar mass of the structure shown.

Experiments:
[1] = Solubility of fumaric acid in the solvent; assay type: physicochemical; conditions: fumaric acid dissolved in dibutyl adipate, at 60° C.
[2] = Solubility of maleic anhydride in the solvent; assay type: physicochemical; conditions: maleic anhydride dissolved in dibutyl adipate, at 60° C.
Solubility in water = assay type: physicochemical; conditions: at 25° C.

Solubility of Fumaric Acid [1]: about 0.15 wt % at 60 °C
Solubility of Maleic Anhydride [2]: >20 wt % at 60 °C
solubility (Solubility in water): 35 µg/mL (≈ 135 µM)
Structure (SMILES): CCCCOC(=O)CCCCC(=O)OCCCC [dibutyl adipate, Di-n-butyl adipate]
Toxicity (in words) (Toxicity statement): neither dibutyl adipate nor any of its hydrolysis products is toxic
